From ChEMBL document CHEMBL3526091, “Pharmacokinetics, metabolism, and excretion of the glycogen synthase kinase-3 inhibitor LY2090314 in rats, dogs, and humans: a case study in rapid clearance by extensive metabolism with low circulating metabolite exposure” (Drug Metab Dispos, 2013)

Experiments:
Rattus norvegicus [1] = assay: Total drug recovery in Sprague-Dawley rat at 5 mg/kg, iv administered for 30 mins during 0 to 24 hrs time interval by radio analysis; assay type: ADME, organism-based; design: dose 5 mg/kg, dosed compound name [14C]LY2090314, route intravenous; details: in vivo
[2] = Cmax in cancer patient at 120 mg for 60 mins treated 1/1 cycle/day; assay type: ADME, organism-based; design: dose 120 mg, dosed compound name LY2090314; details: human, in vivo
[3] = Volume of distribution at steady state in cancer patient at 20 mg for 60 mins treated 2/1 cycle/day; assay type: ADME, organism-based; design: dosed compound name LY2090314; details: human, in vivo, read-out: Vdss
[4] = AUC (0 to infinity) in cancer patient at 10 mg for 60 mins treated 2/1 cycle/day; assay type: ADME, organism-based; design: dose 10 mg, time infinity, dosed compound name LY2090314; details: human, plasma
[5] = Clearance in cancer patient at 40 mg for 60 mins treated 1/1 cycle/day; assay type: ADME, organism-based; design: dosed compound name LY2090314; details: human, in vivo
[6] = AUC (0 to infinity) in cancer patient at 80 mg for 60 mins treated 1/1 cycle/day; assay type: ADME, organism-based; design: dose 80 mg, time infinity, dosed compound name LY2090314; details: human, plasma
Canis familiaris [7] = assay: Clearance in beagle dog assessed as total radioactivity at 5 mg/kg, iv administered for 30 mins; assay type: ADME, organism-based, Canis lupus familiaris; design: dose 5 mg/kg, dosed compound name [14C]LY2090314, route intravenous; details: in vivo, 0.5 h
[8] = AUC (0 to infinity) in beagle dog at 5 mg/kg, iv administered for 30 mins; assay type: ADME, organism-based, Canis lupus familiaris; design: time infinity, dose 5 mg/kg, dosed compound name [14C]LY2090314, route intravenous; details: plasma
[9] = Plasma protein binding in beagle dog; assay type: ADME, cell-free, Canis lupus familiaris; design: dosed compound name [14C]LY2090314; details: read-out: PPB
[10] = Drug metabolism in Mdr1a knockout Sprague-Dawley rat urine at 5 mg/kg, iv administered for 30 mins; assay type: ADME, organism-based; design: dose 5 mg/kg, dosed compound name LY2090314, route intravenous; details: in vivo, 0.5 h
[11] = Clearance in cancer patient at 60 mg for 60 mins treated 1/8 cycle/day; assay type: ADME, organism-based; design: dosed compound name LY2090314; details: human, in vivo
[12] = Volume of distribution at steady state in cancer patient at 80 mg for 60 mins treated 1/1 cycle/day; assay type: ADME, organism-based; design: dosed compound name LY2090314; details: human, in vivo, read-out: Vdss
[13] = Drug recovery in bile duct-cannulated Sprague-Dawley rat urine at 5 mg/kg, iv administered for 30 mins during 0 to 168 hrs time interval by radio analysis; assay type: ADME, organism-based; design: dose 5 mg/kg, dosed compound name [14C]LY2090314, route intravenous; details: in vivo
[14] = Drug recovery in bile duct-cannulated Sprague-Dawley rat assessed as radioactivity in bile during 0 to 12 hrs at 5 mg/kg, iv for 30 mins; assay type: ADME, organism-based; design: dose 5 mg/kg, dosed compound name [14C]LY2090314, route intravenous; details: in vivo
[15] = Drug metabolism in Mrp2 knockout Sprague-Dawley rat urine at 5 mg/kg, iv administered for 30 mins; assay type: ADME, organism-based; design: dose 5 mg/kg, dosed compound name LY2090314, route intravenous; details: in vivo, 0.5 h
Canis familiaris [16] = assay: Drug recovery in beagle dog cage at 5 mg/kg, iv administered for 30 mins during 0 to 168 hrs time interval by radio analysis; assay type: ADME, organism-based, Canis lupus familiaris; design: dose 5 mg/kg, dosed compound name [14C]LY2090314, route intravenous; details: in vivo
[17] = Clearance in Sprague-Dawley rat at 5 mg/kg, iv administered for 30 mins; assay type: ADME, organism-based; design: dose 5 mg/kg, dosed compound name [14C]LY2090314, route intravenous; details: in vivo
[18] = Plasma protein binding in rat; assay type: ADME, cell-free; design: dosed compound name [14C]LY2090314; details: read-out: PPB (converted)
[19] = Volume of distribution at steady state in cancer patient at 120 mg for 60 mins treated 1/1 cycle/day; assay type: ADME, organism-based; design: dosed compound name LY2090314; details: human, in vivo, read-out: Vdss
[20] = AUC (0 to infinity) in cancer patient at 120 mg for 60 mins treated 1/1 cycle/day; assay type: ADME, organism-based; design: dose 120 mg, time infinity, dosed compound name LY2090314; details: human, plasma
[21] = Tmax in Sprague-Dawley rat at 5 mg/kg, iv administered for 30 mins; assay type: ADME, organism-based; design: dose 5 mg/kg, dosed compound name [14C]LY2090314, route intravenous; details: in vivo
[22] = Tmax in beagle dog at 5 mg/kg, iv administered for 30 mins; assay type: ADME, organism-based, Canis lupus familiaris; design: dose 5 mg/kg, dosed compound name [14C]LY2090314, route intravenous; details: in vivo
Canis familiaris [23] = assay: AUC (0 to infinity) in beagle dog assessed as total radioactivity at 5 mg/kg, iv administered for 30 mins; assay type: ADME, organism-based, Canis lupus familiaris, Plasma; design: dose 5 mg/kg, dosed compound name [14C]LY2090314, route intravenous, time infinity; details: in vivo, 0.5 h
[24] = Cmax in cancer patient at 10 mg for 60 mins treated 1/1 cycle/day; assay type: ADME, organism-based; design: dose 10 mg, dosed compound name LY2090314; details: human, in vivo
[25] = Tmax in cancer patient at 20 mg for 60 mins treated 2/1 cycle/day; assay type: ADME, organism-based; design: dosed compound name LY2090314; details: human, in vivo
[26] = Volume of distribution at steady state in cancer patient at 10 mg for 60 mins treated 1/1 cycle/day; assay type: ADME, organism-based; design: dosed compound name LY2090314; details: human, in vivo, read-out: Vdss
[27] = Elimination half life in Sprague-Dawley rat at 5 mg/kg, iv administered for 30 mins; assay type: ADME, organism-based; design: dose 5 mg/kg, dosed compound name [14C]LY2090314, route intravenous; details: in vivo, read-out: beta t1/2 (converted)
[28] = Drug recovery in bile duct-intact Sprague-Dawley rat assessed as radioactivity in feces during 0 to 24 hrs at 5 mg/kg, iv for 30 mins; assay type: ADME, organism-based; design: dose 5 mg/kg, dosed compound name [14C]LY2090314, route intravenous; details: in vivo
[29] = Cmax in cancer patient at 20 mg for 60 mins treated 1/1 cycle/day; assay type: ADME, organism-based; design: dose 20 mg, dosed compound name LY2090314; details: human, in vivo
[30] = Drug recovery in bile duct-intact Sprague-Dawley rat assessed as radioactivity in feces during 0 to 24 hrs at 5 mg/kg, iv administered for 30 mins relative to dosed radioactivity; assay type: ADME, organism-based; design: dose 5 mg/kg, dosed compound name [14C]LY2090314, route intravenous; details: in vivo
[31] = Clearance in cancer patient at 120 mg for 60 mins treated 1/8 cycle/day; assay type: ADME, organism-based; design: dosed compound name LY2090314; details: human, in vivo
Homo sapiens = species on record: Homo sapiens; assay: Drug recovery in cancer patient at 80 to 120 mg for 60 mins; assay type: ADME, organism-based; design: dosed compound name LY2090314; details: in vivo, 1 h
Blood = assay: Drug uptake in Sprague-Dawley rat blood at 5 mg/kg, iv administered for 30 mins; assay type: ADME, organism-based; design: dose 5 mg/kg, dosed compound name [14C]LY2090314, route intravenous; details: in vivo, 0.5 h
[32] = Cmax in cancer patient at 80 mg for 60 mins treated 1/1 cycle/day; assay type: ADME, organism-based; design: dose 80 mg, dosed compound name LY2090314; details: human, in vivo
Rattus norvegicus [33] = assay: Total drug recovery in Sprague-Dawley rat at 5 mg/kg, iv administered for 30 mins during 0 to 168 hrs time interval by radio analysis; assay type: ADME, organism-based; design: dose 5 mg/kg, dosed compound name [14C]LY2090314, route intravenous; details: in vivo
[34] = Drug recovery in Sprague-Dawley rat feces at 5 mg/kg, iv administered for 30 mins during 0 to 24 hrs time interval by radio analysis; assay type: ADME, organism-based; design: dose 5 mg/kg, dosed compound name [14C]LY2090314, route intravenous; details: in vivo
[35] = Plasma protein binding in cancer patient; assay type: ADME, cell-free; design: dosed compound name LY2090314; details: human, read-out: PPB (converted)
[36] = AUC (0 to infinity) in cancer patient at 40 mg for 60 mins treated 1/8 cycle/day; assay type: ADME, organism-based; design: dose 40 mg, time infinity, dosed compound name LY2090314; details: human, plasma
[37] = AUC (0 to infinity) in cancer patient at 40 mg for 60 mins treated 1/1 cycle/day; assay type: ADME, organism-based; design: dose 40 mg, time infinity, dosed compound name LY2090314; details: human, plasma
Canis familiaris [38] = assay: Elimination half life in beagle dog assessed as total radioactivity at 5 mg/kg, iv administered for 30 mins; assay type: ADME, organism-based, Canis lupus familiaris; design: dose 5 mg/kg, dosed compound name [14C]LY2090314, route intravenous; details: in vivo, 0.5 h
[39] = AUC (0 to infinity) in cancer patient at 120 mg for 60 mins treated 1/8 cycle/day; assay type: ADME, organism-based; design: dose 120 mg, time infinity, dosed compound name LY2090314; details: human, plasma
[40] = Clearance in cancer patient at 20 mg for 60 mins treated 2/1 cycle/day; assay type: ADME, organism-based; design: dosed compound name LY2090314; details: human, in vivo
[41] = Cmax in cancer patient at 80 mg for 60 mins treated 1/8 cycle/day; assay type: ADME, organism-based; design: dose 80 mg, dosed compound name LY2090314; details: human, in vivo
Rattus norvegicus [42] = assay: Total drug recovery in bile duct-cannulated Sprague-Dawley rat at 5 mg/kg, iv administered for 30 mins during 0 to 12 hrs time interval by radio analysis; assay type: ADME, organism-based; design: dose 5 mg/kg, dosed compound name [14C]LY2090314, route intravenous; details: in vivo
[43] = Clearance in cancer patient at 80 mg for 60 mins treated 1/1 cycle/day; assay type: ADME, organism-based; design: dosed compound name LY2090314; details: human, in vivo
[44] = Drug recovery in beagle dog feces at 5 mg/kg, iv administered for 30 mins during 0 to 24 hrs time interval by radio analysis; assay type: ADME, organism-based, Canis lupus familiaris; design: dose 5 mg/kg, dosed compound name [14C]LY2090314, route intravenous; details: in vivo

Compound `O=C1NC(=O)C(c2cnc3ccccn23)=C1c1cn2c3c(cc(F)cc13)CN(C(=O)N1CCCCC1)CC2` [LY-2090314] has a Radiolabel recovery (Rattus norvegicus [1]) of 92.6%, a Cmax [2] of 1700 ng/mL and a Vd [3] of 71.5 L. For the same compound, the AUC(0-inf) [4] was 192 ng·h/mL, the clearance [5] was 688 mL/min and the AUC(0-inf) [6] was 1870 ng·h/mL. For the same compound, the CL (Canis familiaris [7]) was 337 mL/h/kg, the AUC(0-inf) [8] was 3230 ng·h/mL and the fraction unbound [9] was 0.01. The Drug metabolism [10] was “metabolite_detected”, the clearance [11] was 633 mL/min and the Vd [12] was 86.3 L. The Radiolabel recovery [13] was 1.94%, the Radiolabel recovery [14] was 1.78% and the Drug metabolism [15] was “metabolite_detected”. It also gave a Radiolabel recovery (Canis familiaris [16]) of 3.22%, a clearance [17] of 57.5 mL/min/kg and a fraction unbound [18] of 0.02. For the same compound, the Vd [19] was 82.1 L, the AUC(0-inf) [20] was 3310 ng·h/mL and the Tmax [21] was 30 min. For the same compound, the Tmax [22] was 30 min, the AUC (Canis familiaris [23]) was 15067 ng·h/mL and the Cmax [24] was 122 ng/mL. The Tmax [25] was 45 min, the Vd [26] was 89.7 L and the half-life [27] was 21.5 min. For the same compound, the Radiolabel recovery [28] was 2.43%, the Cmax [29] was 246 ng/mL and the Radiolabel recovery [30] was 2.4%. The clearance [31] was 638 mL/min, the Compound recovery (Homo sapiens) was 1.6% and the Compound recovery (Blood) was 83.4%. It also gave a Cmax [32] of 898 ng/mL, a Radiolabel recovery (Rattus norvegicus [33]) of 97.7% and a Radiolabel recovery [34] of 91.8%. It also gave a fraction unbound [35] of 0.03, an AUC(0-inf) [36] of 938 ng·h/mL and an AUC(0-inf) [37] of 976 ng·h/mL. For the same compound, the “beta t1/2” value (Canis familiaris [38]) was 73.6 h, the AUC(0-inf) [39] was 2190 ng·h/mL and the clearance [40] was 825 mL/min. For the same compound, the Cmax [41] was 1150 ng/mL, the Radiolabel recovery (Rattus norvegicus [42]) was 87% and the clearance [43] was 747 mL/min. The Radiolabel recovery [44] was 39.8%.
